Source: patent US8003331B2, “Method for identifying target protein of drug and method for screening therapeutic agent for diabetes using the target protein” (Astellas Pharma Inc., priority 2005, dated 2011)

Key:
TARDBP = molecular target: T1, TARDBP (Homo sapiens, UniProt Q13148); experiment: pull-down with 8 GST fusion chaperone proteins from THP-1 cell extract, negative staining and mass spectrum identification; assay type: binding; conditions: 100 μM thalidomide added or not added
T1 construct: endogenous in cells; host or cells: THP-1
Protocol: Thalidomide has significant drug effects for sleep inducing agents, multiple myeloma, HIV, Hansen's disease and the like, but direct target protein of thalidomide has so far been unclear. Accordingly, an attempt was made to screen a target protein of thalidomide using the method shown in the aforementioned “Example 2(2). A human monocytic cell line THP-1 (ATCC) was cultured and suspended in 60 ml of a minimum essential medium (RPMI 1640, Invitrogen) containing 10% fetal calf serum (FCS) and cultured on a plate of 10 cm in diameter (Asahi Techno Glass) until reached 10^6 cells/ml. The cells were collected by 3 minutes of centrifugation at 1200 rpm, washed once with 10 ml of ice-cooled PBS and then lysed by adding 2.0 ml of the aforementioned buffer A, and the cell extract was collected. […] Under a condition of adding or not adding 100 μM in final concentration of thalidomide ((−)-thalidomide, Sigma), a pull-down test was carried out by mixing this soluble fraction of cell extract with 8 species of GST fusion chaperone proteins purified on the glutathione Sepharose beads (a mixture of GST-HSPA1A, GST-HSPH1, GST-HSPCA, GST-HSPD1, GST-DNAJA1, GST-HSPB1, GST-HSPE1 and GST-HSPA4; respective proteins were mixed in 0.5 μg portions). In this connection, steps and conditions of the pull-down test were the same as the aforementioned Example 2(2). […]

TNF-α = TNF-α gene expression in HeLa S3 cell (real time PCR, corrected by β-actin); assay type: cell-based, human
Protocol: The pcDNA-TARDBP or an empty vector (pcDNA3.1) (Invitrogen) was transferred into HeLa S3 cell. Illustratively, the HeLa S3 cell (ATCC) was firstly cultured in a 12 well culture plate until it reached a state of 70% confluent, by adding 1 ml of a minimum essential medium DMEM (Gibco) containing 10% fetal bovine serum (Sigma) to each well of the culture plate. The medium was substituted by 0.5 ml per well of a serum-free medium OPTI MEM I (Invitrogen), and 0.8 μg/well of the pcDNA-TARDBP or pcDNA3.1 was transiently transferred using Lipofect amine 2000 (Invitrogen). After 12 hours of the culturing, this was substituted by 1 ml/well of DMEM containing 10% of fetal bovine serum and further cultured for 12 hours. This was further cultured for 16 hours under a condition of adding or not adding okadaic acid (Wako Pure Chemical Industries) to a final concentration of 50 nM. In this case, […] was added a part of the cells simultaneously with the okadaic acid treatment. The medium was discarded, the cells were washed twice with ice-cooled PBS, and then these cells were frozen and stored at −80° C.
Total RNA was prepared from each cell frozen in the aforementioned Example 9(2), using a reagent for RNA extraction use (Isogen; Nippon Gene) and in accordance with the instructions attached thereto. The thus prepared each total RNA was then treated with a deoxyribonuclease (Nippon Gene), subjected to phenol/chloroform treatment and ethanol precipitation and dissolved in sterile water. Using 1 μg of this total RNA, its reverse transcription into a single-stranded cDNA was carried out in a system of 20 μl using a kit for reverse transcription reaction use (Advantage™ RT-for-PCR Kit; Clontech).
Six oligonucleotides (SEQ ID NO:97 to SEQ ID NO:102) were designed and synthesized as primers of PCR for the measurement of gene expression quantity. A combination of SEQ ID NO:97 and SEQ ID NO:98 was used for human β-actin gene, and a combination of SEQ ID NO:99 and SEQ ID NO:100 for human TNF-α gene, and a combination of SEQ ID NO:101 and SEQ ID NO:102 for human TARDBP gene, respectively. […]
The expression quantities of human TNF-α gene and human TARDBP gene in each sample were corrected by the expression quantity of β-actin gene based on the following equation. [Corrected expression quantity of TNF-α or TARDBP]=[expression quantity of TNF-α or TARDBP gene (raw data)/[expression quantity of β-actin gene (raw data)]
In comparing the expression quantities of TNF-α and TARDBP genes, relative amounts were calculated by regarding the expression quantity in a cell, into which an empty vector (pcDNA3.1) was transferred and which was treated only with the solvent (DMSO), as 100, with the results sown in FIG. 9 and FIG. 10. […]

T1 sequence (Q13148 whole entry, the tested form may be a part): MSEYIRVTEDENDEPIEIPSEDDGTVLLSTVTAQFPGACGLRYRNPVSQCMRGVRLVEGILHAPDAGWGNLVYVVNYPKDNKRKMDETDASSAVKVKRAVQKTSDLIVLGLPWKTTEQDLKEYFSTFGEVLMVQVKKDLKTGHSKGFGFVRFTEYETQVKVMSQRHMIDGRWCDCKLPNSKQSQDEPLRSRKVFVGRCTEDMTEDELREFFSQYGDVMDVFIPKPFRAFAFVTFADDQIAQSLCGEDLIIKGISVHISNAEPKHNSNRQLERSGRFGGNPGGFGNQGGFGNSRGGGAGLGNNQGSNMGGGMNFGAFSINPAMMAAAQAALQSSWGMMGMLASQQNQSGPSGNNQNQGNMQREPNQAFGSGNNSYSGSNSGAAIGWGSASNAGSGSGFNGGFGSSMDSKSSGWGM

O=C1CCC(N2C(=O)c3ccccc3C2=O)C(=O)N1 (single isomer, unassigned; (-)) [thalidomide, (−)-thalidomide] was tested, and the “band of about 45 kDa (TARDBP) binding to GST fusion chaperone protein mixture” value (TARDBP) was “present only when thalidomide was added”, the “action to suppress expression of TNF-α” value (TNF-α; TARDBP high expression cell (pcDNA-TARDBP HeLa S3), with 50 nM okadaic acid) was “not observed” and the “suppression of expression acceleration of TNF-α by okadaic acid” value (TNF-α; control cell (empty vector HeLa S3), thalidomide '100' added with 50 nM okadaic acid, 16 hours) was roughly 50%.
